Data from PMC3161871, “Heteroarylketones inhibit astroglial interleukin-6 expression via a STAT3/NF-κB signaling pathway” (Journal of Neuroinflammation, 2011).

Experiments:
[1] = biological target: T1, human recombinant prolyl endopeptidase (PREP) (Homo sapiens, UniProt P48147); assay: PREP enzymatic activity assay (Z-Gly-Pro-pNA, photometric); type: biochemical; settings: recombinant PREP, Z-Gly-Pro-pNA 62.5/125/250 μM, pH 7.6, 30°C, competitive fit
T1 construct: made in house
T1 sequence (P48147 1-710): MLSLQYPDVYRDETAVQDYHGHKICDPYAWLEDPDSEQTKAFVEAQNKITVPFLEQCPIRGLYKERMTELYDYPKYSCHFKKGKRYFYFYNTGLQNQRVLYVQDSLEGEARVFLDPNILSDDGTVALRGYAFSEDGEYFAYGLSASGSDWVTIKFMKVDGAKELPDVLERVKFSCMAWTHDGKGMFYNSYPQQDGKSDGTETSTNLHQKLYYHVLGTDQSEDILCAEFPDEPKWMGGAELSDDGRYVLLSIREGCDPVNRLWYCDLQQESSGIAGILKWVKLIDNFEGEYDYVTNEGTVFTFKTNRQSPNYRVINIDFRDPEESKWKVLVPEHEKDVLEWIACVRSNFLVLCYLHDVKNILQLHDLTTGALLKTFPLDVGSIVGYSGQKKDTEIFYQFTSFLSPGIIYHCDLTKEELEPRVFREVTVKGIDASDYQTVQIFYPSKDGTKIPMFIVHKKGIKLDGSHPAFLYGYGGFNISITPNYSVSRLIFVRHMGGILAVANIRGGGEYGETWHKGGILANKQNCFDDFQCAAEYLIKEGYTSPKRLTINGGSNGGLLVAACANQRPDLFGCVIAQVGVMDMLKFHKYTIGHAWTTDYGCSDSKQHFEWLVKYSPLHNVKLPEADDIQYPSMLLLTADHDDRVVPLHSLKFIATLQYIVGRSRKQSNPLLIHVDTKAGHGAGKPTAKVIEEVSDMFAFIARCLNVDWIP
Experimental: The activity of human recombinant prolyl endopeptidase (PREP) was determined photometrically using the substrate Z-Gly-Pro-pNA (Bachem, Weil am Rhein, Germany) usually at a concentration of 150 μM. As assay buffer 50 mM HEPES buffer pH 7.6, containing 200 mM NaCl, 1 mM EDTA, and 1 mM dithiothreitol was used. Release of pNA was monitored continuously at 405 nm for 15 min at 30°C in a 96-well plate reader (Spectrafluor, Tecan, Crailsheim, Germany). PREP activity was calculated from the slope of the time product curve with the help of a pNA standard. For determination of Ki values three different substrate concentrations (62.5 μM; 125 μM and 250 μM) and seven different inhibitor concentrations were analyzed. Substrate concentrations were selected to be at the Km value of Z-Gly-Pro-pNA (125 μM) as well as half and twice the Km. Data were fitted by non-linear regression to the competitive inhibitor equation (Graphit 5.0, Erithacus software).

STAT3/p65 complex = assay: Co-immunoprecipitation of p65 and STAT3 in OSM-stimulated U343 cells; type: cell-based, human; settings: 100 ng/ml OSM, 20 μM compound, 6 h
Experimental: Cell lysates from 4 × 10^6 U343 cells/sample were obtained as described above. From each sample 200 μg of total protein were immunoprecipitated with 2 μg rabbit anti-p65 antibody (Santa Cruz Biotechnology; Heidelberg, Germany) or A. dest. (control) overnight at 4°C. Immunoprecipitated samples were incubated with 20 μl Dynabeads Protein G (Thermo Fisher Scientific, Karlsruhe, Germany) for 1 h at 4°C. Beads were washed 3 times with 1 ml PBS. Preparation of samples for SDS-PAGE analysis was done by means of dilution with SDS-PAGE sample buffer (Invitrogen, Darmstadt, Germany), followed by denaturation at 90°C for 10 min. SDS-PAGE analysis were performed as described before.
Normally, STAT3 is activated by phosphorylation at tyrosine 705, which induces dimerization, nuclear translocation and DNA binding. In contrast to other transcription factors like NF-κB, Creb and c/EBPb, STAT3 can not bind directly to the IL-6 promoter, because there are no STAT3 binding elements present. It is known from literature that several forms of interactions and cross talks between NF-κB and STAT3 exist. For instance, recent studies have shown a physical interaction between STAT3 and NF-κB [42, 43]. The importance of pSTAT3^S727 for protein interactions are under discussion. However, there is no information so far on the role of pSTAT3^S727 for the interaction with NF-κB. […]

[2] = test system: OSM-stimulated IL-6 secretion from U343 cells; assay: OSM-induced IL-6 release from U343 glioma cells (IL-6 ELISA of conditioned medium); type: cell-based, human; settings: 20 μM compound, vehicle-transfected U343 cells, OSM 6 h

## C[C@H](NC(=O)OCc1ccccc1)C(=O)N1CCC[C@H]1C(=O)c1nc2ccccc2s1 [HAK-2, Z-Ala-Pro-BTh]
[1]
  Ki: 38 pM
STAT3/p65 complex
  p65-mediated STAT3 co-immunoprecipitation: clear reduction
[2]
  IL-6 levels (mRNA and released protein) in the PREP knock-down experiment: reduces IL-6 levels
